In patent US4315020A, “Oxazoline (trifluoroethyl) amine” (Science Union et Cie, priority 1976, dated 1982):

Assay: solubility
Type: physicochemical
Details: for solubility in the stoichiometric amount of N/10 hydrochloric acid: N/10 hydrochloric acid solution

In the case of FC(F)(F)C(NC1=NCCO1)c1ccccc1 (single isomer, unassigned) [XII, levorotatory 2-[α-trifluoromethylbenzylamino] oxazoline], the “solubility in dilute hydrochloric acid” value (dilute hydrochloric acid) is reported as “solbuble”.

With Cn1cccc1C(NC1=NCCO1)C(F)(F)F (racemic) [XIV, dl α-trifluoromethyl 2-[(N-methylpyrrolyl-2)methylamino] oxazoline] the “solubility in a N/10 aqueous solution of hydrochloric acid” value (N/10 aqueous hydrochloric acid) was “soluble”.

With FC(F)(F)C(NC1=NCCO1)c1ccc[nH]1 (racemic) [XVI, dl α-trifluoromethyl 2-[(pyrrolyl-2)methylamino] oxazoline] the “solubility in the stoichiometric amount of N/10 hydrochloric acid” value (stoichiometric amount) was “soluble”.

For FC(F)(F)C(NC1=NCCN1)c1ccccc1 (racemic) [I, 2(α-phenyl trifluoroethylamino) imidazoline], the “solubility in the stoichiometric amount of N/10 hydrochloric acid” value (stoichiometric amount) was “soluble”.

For CN(C1=NCCO1)C(c1ccccc1)C(F)(F)F (racemic) [XV, dl α-trifluoromethyl 2-(N-methylbenzylamino) oxazoline], the “solubility in an aqueous solution of hydrochloric acid” value (aqueous hydrochloric acid) was “soluble” and the “solubility in the most of the organic solvents” value (most organic solvents) was “soluble”.

In the case of Cc1ccccc1C(NC1=NCCO1)C(F)(F)F (racemic) [XIX, dl 2-[(2-methylphenyl) ααα-trifluoroethyl]amino oxazoline], the “solubility in the aqueous solution of mineral acids” value (aqueous mineral acids) is reported as “soluble” and the “solubility in the usual organic solvents” value (usual organic solvents) is reported as “soluble”.

With FC(F)(F)C(NC1=NCCO1)c1ccco1 (racemic) [X, dl 2-[α-trifluoromethyl (furyl-2)methylamino] oxazoline] the “solubility in the stoichiometric amount of dilute hydrochloric acid” value (stoichiometric amount, dilute hydrochloric acid) was “soluble”.
